For this assay, the target named is T1, purified recombinant human caspase-3 (Homo sapiens, UniProt P42574).
T1 construct: Active site shared between large and small caspase subunit
T1 sequence (P42574 29-175 limits assumed): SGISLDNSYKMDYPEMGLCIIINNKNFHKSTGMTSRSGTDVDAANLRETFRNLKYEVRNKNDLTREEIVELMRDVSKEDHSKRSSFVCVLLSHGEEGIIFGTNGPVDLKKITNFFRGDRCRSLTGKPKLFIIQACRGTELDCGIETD
T1 sequence (P42574 176-277 limits assumed): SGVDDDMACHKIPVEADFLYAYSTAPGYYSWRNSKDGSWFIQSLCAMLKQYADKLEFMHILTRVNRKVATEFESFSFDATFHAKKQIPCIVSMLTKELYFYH
The experiment in a line: DEVD-AMC cleavage activity with recombinant human caspase-3 pre-incubated with inhibitor. The format is biochemical. The settings on record: purified recombinant caspase-3 pre-incubated with increasing amounts of M791. Here is the method:
FIG. 3. Potency assessment caspase inhibitors by [^125]-M808 labeling and by DEVD-AMC cleavage activity. A, B-Caspase inhibitor titration and [^125]-M808 labeling with purified recombinant human caspase-3. A-M791 with 5 minute labeling reaction and M791 with 60 minute labeling reaction. In A, the indicated IC50 was defined as the concentration of M791 that reduced the intensity of [^125I]-M808-labeled p17 subunit of caspase-3 by 50%. B-Caspase inhibitor titration and DEVD-AMC cleavage activity with recombinant human caspase-3 that had been incubated with indicated concentration of M791. Under the fluorogenic assay conditions Ki=IC50/2.
Tissues (rat liver, kidney, brain, thymus, mouse thymus) were either frozen or processed within 20 minutes of their removal. Rat tissues and cultured cells were homogenized in ice cold cell lysis buffer (50 mM Tris-Cl pH 7.5, 2 mM EDTA, 1% NP-40) supplemented with 5 mM DTT and Complete protease inhibitor cocktail (Roche). Thymi from mice injected with [^125I]-M808 were homogenized in lysis buffer supplemented with 25 μM of M808. Nuclear debris was removed by centrifugation at 13000 rpm for 10 min and the soluble fraction quantitated by Bradford assay (Bio-Rad). Caspase-3 like activity was determined with the fluorogenic substrate Ac-DEVD-AMC as described by Roy et al. (2001) Proc. Nat. Acad. Sci. USA 98: 6132-6137. […]

With `COc1ccc(-c2nc(C)no2)cc1CC(=O)N[C@H](C(=O)N[C@@H](CC(=O)O)C(=O)CSCc1ccccc1)C(C)C` [Example M791, (3S)-5-(benzylthio)-3-[(N-{[2-methoxy-5-(3-methyl-1,2,4-oxadiazol-5-yl)phenyl]acetyl}-L-valyl)amino]4-oxopentanoic acid], the IC50 turned out to be 0.6 nM.

The IC50 is the concentration that inhibits the measured activity by half.
